# Experiments:
# HUT78 human TCL cells [1] = test: Dose-dependent effects on CD137L protein surface expression (flow cytometry); type: cell-based; settings: for regulation of CD137L protein surface expression, HUT78 Protein: summary Table 3; for CD137L protein surface expression: HUT78 cells, dose range, 24 hours; on regulation of CD137L protein surface expression, HUT78 Protein: key: 'Y' indicates the treatment caused upregulation; 'N' indicates the treatment did not cause upregulation
# Description: HUT78 cells, cultured in 6-well plates in RPMI-1640 medium containing 20% fetal bovine serum (FBS), were treated with a dose range of Romidepsin (0-0.1 μM), Bortezomib (0-1.0 μM), Belinostat (0-1.0 μM), Chidamide (0-3.0 μM), or Vincristine (0-0.03 μM) for 24 hours. Cells (1×10^5) were washed twice in Dulbecco's Phosphate Buffered Saline (DPBS), stained with either Phycoerythrin (PE)-conjugated Isotype Control (Biolegend catalog #400112) and anti-human-CD137L (Biolegend catalog #311504) antibodies (1 μL antibody in 100 μL DPBS, FIG. 5A-5E) or PE-Cy7-conjugated Isotype Control (Thermofisher catalog #25-4714-80) and anti-human-CD137L (Thermofisher catalog #25-5906-42) antibodies (1 μL antibody in 100 μL DPBS, FIG. 5F-5H) at 4° C. for 30 minutes, washed twice in DPBS, and resuspended in 100 μL DPBS for flow cytometry analysis.
# HUT102 human TCL cells = test: mRNA expression, QuantiGene Plex assay, HUT102; type: cell-based; settings: for regulation of CD137L mRNA expression, HUT102 mRNA: summary Table 3; for CD137L mRNA expression / CD137 mRNA expression / CD274 mRNA expression: HUT102 cells, dose range, 24 hours; on regulation of CD137L mRNA expression, HUT102 mRNA: key: 'Y' indicates the treatment caused upregulation; 'N' indicates the treatment did not cause upregulation
# Description: (§1) HUT102, HUT78, and SU-DHL1 cells, cultured in 96-well plates, were treated with a dose range of Romidepsin (0-0.1 μM), Bortezomib (0-1.0 μM), Belinostat (0-10.0 μM), or Vincristine (0-0.03 μM) for 24 hours. Cells were lysed with Lysis Buffer and cell lysates were used for the QuantiGene Plex assay (7-gene multiplex (CD80, CD86, CD274, CD137, CD137L, HPRT1, GAPDH))
# HUT78 human TCL cells [2] = test: mRNA expression, QuantiGene Plex assay, HUT78; type: cell-based; settings: for regulation of CD137L mRNA expression, HUT78 mRNA: summary Table 3; for CD137L mRNA expression: HUT78 cells, dose range, 24 hours; on regulation of CD137L mRNA expression, HUT78 mRNA: key: 'Y' indicates the treatment caused upregulation; 'N' indicates the treatment did not cause upregulation
# Description: as §1
# SU-DHL1 human TCL cells = test: mRNA expression, QuantiGene Plex assay, SU-DHL1; type: cell-based; settings: for regulation of CD137L mRNA expression, SU-DHL1 mRNA: summary Table 3; on regulation of CD137L mRNA expression, SU-DHL1 mRNA: key: 'Y' indicates the treatment caused upregulation; 'N' indicates the treatment did not cause upregulation
# Description: as §1
# [3] = tested on: A20 B cell lymphoma cells; type: in vivo, BALB/c mice; settings: ADG106 5 mg/kg twice a week for 4 doses; Bendamustine 12.5 mg/kg once a day for 4 doses; intraperitoneal
# Description: BALB/c mice (n=8 per group, female, 6-8 weeks old) were transplanted subcutaneously with 5×10^5 A20 B cell lymphoma cells. After tumors were established (i.e., having reached a volume of 100 mm^3), mice were treated with vehicle, ADG106 (5 mg/kg, twice a week for 4 doses by intraperitoneal injection), Bendamustine (12.5 mg/kg, once a day for 4 doses by intraperitoneal injection), or ADG106 (5 mg/kg, twice a week for 4 doses by intraperitoneal injection) in combination with Bendamustine (12.5 mg/kg, once a day for 4 doses by intraperitoneal injection). Tumor growth was monitored twice weekly and reported as mean tumor volume±SEM over time.
# HUT78 human TCL cells [4] = test: Time-dependent effects on CD137L protein surface expression (flow cytometry); type: cell-based; settings: 0.003 μM Romidepsin or 0.01 μM Bortezomib, 2, 6, 16 or 24 hours
# Description: HUT78 cells, cultured in 6-well plates in RPMI-1640 medium containing 20% FBS, were treated with 0.003 μM Romidepsin or 0.01 μM Bortezonib for 2, 6, 16, or 24 hours. Cells (1×103) were washed twice in DPBS, stained with PE-conjugated Isotype Control (Biolegend catalog #400112) and anti-human-CD137L (Biolegend catalog #311504) antibodies (1 μL antibody in 100 μL DPBS) at 4° C. for 30 minutes, washed twice in DPBS, and resuspended in 100 μL DPBS for flow cytometry analysis.
# HUT78 human TCL cells [5] = test: Cell viability of HUT78 cells (CellTiter-Glo); type: cell-based; settings: dose range, 24 hours
# Description: (§2) HUT78 cells, cultured in 96-well plates in RPMI-1640 medium containing 20% fetal bovine serum (FBS), were treated with a dose range of Romidepsin (0-0.1 μM), Bortezomib (0-1.0 μM), or Chidamide (0-3.0 μM) for 24 hours. The CellTiter-Glo assay (Promega) was used to assess cell viability according to the manufacturer's instructions.
# purified human T cells = test: Cell viability of purified human T cells (CellTiter-Glo); type: cell-based; settings: dose range, 24 hours
# Description: as §2, with “T cells were purified from human PBMCs (>95% purity, data not shown),” for “HUT78 cells,”, “10%” for “20%”, “and” for “were”
# human T lymphocytes = settings: Kim K. et al., Immunology 2002; cited from earlier work
# [6] = SU-DHL1 cells, dose range, 24 hours
Molecule,"regulation of CD137L protein surface expression, HUT78 Protein (HUT78 human TCL cells [1])",CD137L protein surface expression (HUT78 human TCL cells [1]),"regulation of CD137L mRNA expression, HUT102 mRNA (HUT102 human TCL cells)",CD137L mRNA expression (HUT102 human TCL cells),"regulation of CD137L mRNA expression, HUT78 mRNA (HUT78 human TCL cells [2])",CD137L mRNA expression (HUT78 human TCL cells [2]),"regulation of CD137L mRNA expression, SU-DHL1 mRNA (SU-DHL1 human TCL cells)",CD137L mRNA expression (SU-DHL1 human TCL cells; [6]),expression of CD137 in human T lymphocytes (human T lymphocytes),also measured
"O=C(/C=C/c1cccc(S(=O)(=O)Nc2ccccc2)c1)NO [Belinostat, belinostat]",Y,dose-dependent upregulation,Y,dose-dependent upregulation,Y,dose-dependent upregulation,Y,dose-dependent upregulation,–,CD137 mRNA expression (HUT102 human TCL cells): induced; CD274 mRNA expression (HUT102 human TCL cells): induced; CD137 mRNA expression (SU-DHL1 human TCL cells; [6]): induced
"Cn1c(CCCC(=O)O)nc2cc(N(CCCl)CCCl)ccc21 [Bendamustine, bendamustine]",–,–,–,–,–,–,–,–,–,tolerability in mice as monotherapies [3]: well tolerated
"CC(C)C[C@H](NC(=O)[C@H](Cc1ccccc1)NC(=O)c1cnccn1)B(O)O [Bortezomib, bortezomib]",Y,dose-dependent upregulation,Y,dose-dependent upregulation,N,not,Y,dose-dependent upregulation,–,CD137L protein surface expression over time (HUT78 human TCL cells [4]): time-dependent upregulation; CD274 mRNA expression (HUT102 human TCL cells): induced; cell viability of HUT78 human TCL cells (HUT78 human TCL cells [5]): inhibited cell viability; viability of purified human T cells (purified human T cells): minimal or no effect
"Nc1cc(F)ccc1NC(=O)c1ccc(CNC(=O)/C=C/c2cccnc2)cc1 [Chidamide, chidamide]",Y,–,–,–,–,–,–,–,–,–
"CO[C@@]12[C@H](COC(N)=O)C3=C(C(=O)C(C)=C(N)C3=O)N1C[C@@H]1N[C@@H]12 [Mitomycin, mitomycin]",–,–,–,–,–,–,–,–,induce expression of CD137,–
"C/C=C1\NC(=O)[C@H]2CSSCC/C=C/[C@H](CC(=O)N[C@H](C(C)C)C(=O)N2)OC(=O)[C@H](C(C)C)NC1=O [Romidepsin, romidepsin]",Y,–,Y,–,Y,–,Y,–,–,–
"CC[C@]1(O)C[C@H]2CN(CCc3c([nH]c4ccccc34)[C@@](C(=O)OC)(c3cc4c(cc3OC)N(C=O)[C@H]3[C@@](O)(C(=O)OC)[C@H](OC(C)=O)[C@]5(CC)C=CCN6CC[C@]43[C@@H]65)C2)C1 [Vincristine, vincristine]",N,did not show upregulation,Y,induced upregulation,N,not,N,not,–,CD137 mRNA expression (HUT102 human TCL cells): induced
COc1cccc2c1C(=O)c1c(O)c3c(c(O)c1C2=O)C[C@@](O)(C(=O)CO)C[C@@H]3O[C@H]1C[C@H](N)[C@H](O)[C@H](C)O1 [doxorubicin],–,–,–,–,–,–,–,–,induce expression of CD137,–
"ADG106: anti-CD137 antibody; heavy chain SEQ ID NO: 10, light chain SEQ ID NO: 11; used as mouse IgG1 in Example 10",–,–,–,–,–,–,–,–,–,tolerability in mice as monotherapies [3]: well tolerated
bleomycin,–,–,–,–,–,–,–,–,induce expression of CD137,–
